Reference: ChEMBL document CHEMBL3616438, “Molecular modeling studies and synthesis of novel quinoxaline derivatives with potential anticancer activity as inhibitors of c-Met kinase” (Bioorg Med Chem, 2015)
Converted amounts (≈) assume the structure as drawn.

Key:
Type in all cases: functional, cell-based
SF-268 = assay: Cytotoxicity against human SF268 cells assessed as inhibition of cell viability after 72 hrs by SRB assay
NCI-H460 = assay: Cytotoxicity against human NCI-H460 cells assessed as inhibition of cell viability after 72 hrs by SRB assay
MCF7 = assay: Cytotoxicity against human MCF7 cells assessed as inhibition of cell viability after 72 hrs by SRB assay

| SMILES | IC50 (SF-268) [µg/mL] | IC50 (NCI-H460) [µg/mL] | IC50 (MCF7) [µg/mL] |
| --- | --- | --- | --- |
| O=c1[nH]c2ccc(Br)cc2nc1/C=C/c1ccc(Br)cc1 | 0.04066 (≈ 0.1 µM) | 0.03632 (≈ 0.0894 µM) | 0.03223 (≈ 0.0794 µM) |
| O=c1[nH]c2ccc(Br)cc2nc1/C=C/c1ccc(O)cc1 | 0.02283 (≈ 0.0665 µM) | 0.02281 (≈ 0.0665 µM) | 0.02281 (≈ 0.0665 µM) |
| Cc1ccc(/C=C/c2nc3cc(Br)ccc3[nH]c2=O)cc1 | 0.0168 (≈ 0.0492 µM) | 0.00812 (≈ 0.0238 µM) | 0.02221 (≈ 0.0651 µM) |
| COc1ccc(/C=C/c2nc3cc(Br)ccc3[nH]c2=O)cc1 | 0.2 (≈ 0.56 µM) | 0.06 (≈ 0.168 µM) | 0.06 (≈ 0.168 µM) |
| CCOC(=O)Cn1c(=O)c(C)nc2cc(Br)ccc21 | 0.00863 (≈ 0.0265 µM) | 0.01042 (≈ 0.032 µM) | 0.0224 (≈ 0.0689 µM) |
| Cc1nc2cc(Br)ccc2n(CC(=O)NN)c1=O | 0.06 (≈ 0.193 µM) | 0.02 (≈ 0.0643 µM) | 0.01 (≈ 0.0321 µM) |
| Cc1nc2cc(Br)ccc2nc1N1CCCCC1 | 0.03044 (≈ 0.0994 µM) | 0.04032 (≈ 0.132 µM) | 0.03361 (≈ 0.11 µM) |
| Cc1nc2cc(Br)ccc2nc1Nc1ccc(S(=O)(=O)N2CCCCC2)cc1 | 0.0018 (≈ 0.0039 µM) | 0.67 (≈ 1.45 µM) | 0.00162 (≈ 0.00351 µM) |
| Cc1nc2cc(Br)ccc2nc1NN | 0.01682 (≈ 0.0665 µM) | 0.02062 (≈ 0.0815 µM) | 0.02427 (≈ 0.0959 µM) |
| Cc1cc(C)n(-c2nc3ccc(Br)cc3nc2C)n1 | 0.04541 (≈ 0.143 µM) | 0.0346 (≈ 0.109 µM) | 0.02355 (≈ 0.0742 µM) |
| Cc1nc2cc(Br)ccc2n2nnnc12 | 0.0203 (≈ 0.0769 µM) | 0.0208 (≈ 0.0788 µM) | 0.03309 (≈ 0.125 µM) |
| Cc1nc2cc(Br)ccc2nc1Sc1ccccc1 | 0.01816 (≈ 0.0548 µM) | 0.01842 (≈ 0.0556 µM) | 0.01222 (≈ 0.0369 µM) |
| Cc1nc2cc(Br)ccc2nc1Oc1ccccc1N | 0.06 (≈ 0.182 µM) | 0.03 (≈ 0.0909 µM) | 0.02 (≈ 0.0606 µM) |
| Cc1nc2cc(Br)ccc2nc1Oc1ccc(N)cc1 | 0.08 (≈ 0.242 µM) | 0.52 (≈ 1.57 µM) | 0.81 (≈ 2.45 µM) |
| Cc1nc2cc(Br)ccc2nc1Oc1ccc(/N=C\c2ccc(Cl)cc2)cc1 | 0.02 (≈ 0.0442 µM) | 0.08 (≈ 0.177 µM) | 0.08 (≈ 0.177 µM) |
| Cc1nc2cc(Br)ccc2nc1Oc1ccc(C=O)cc1 | 0.0405 (≈ 0.118 µM) | 0.02845 (≈ 0.0829 µM) | 0.03278 (≈ 0.0955 µM) |
| Cc1nc2cc(Br)ccc2nc1Oc1ccc(/C=N\c2ccc(Cl)cc2)cc1 | 0.03043 (≈ 0.0672 µM) | 0.01866 (≈ 0.0412 µM) | 0.01263 (≈ 0.0279 µM) |
| COc1cccc2c1C(=O)c1c(O)c3c(c(O)c1C2=O)C[C@@](O)(C(=O)CO)C[C@@H]3O[C@H]1C[C@H](N)[C@H](O)[C@H](C)O1 [DOXORUBICIN] | 0.09 (≈ 0.166 µM) | 0.09 (≈ 0.166 µM) | 0.04 (≈ 0.0736 µM) |
